Like-named read-outs stand apart in the source and are kept apart here.
Legend:
Assay type in all cases: biochemical, Arthrobacter globiformis M6
[1] = tested on: CMM-forming enzyme; test: Action on various saccharides (substrate specificity, TLC); design: key: “−” means “Not changed”; “+” means “Spot of substrate is slightly decreased and other products are detected”; “++” means “Spot of substrate is markedly decreased and other products are detected”; “+++” means “Spot of substrate is virtually disappeared and other products are detected”; conditions: substrate 2% (w/v), one unit/g-substrate enzyme, 40° C., pH 6.0, 24 hours, TLC before and after reaction
Method: Substrate specificity of CMM-forming enzyme of the present invention was investigated using various saccharides as substrates. Substrate solutions were prepared by dissolving maltose, maltotriose, maltotetraose, maltopentaose, maltohexaose, maltoheptaose, neotrehalose, trehalose, kojibiose, nigerose, […] isomaltose, isomaltotriose, panose, isopanose, maltitol, maltotriitol, α-, β- or γ-cyclodextrin, amylose, soluble starch, glycogen, pullulan or dextran into water. Each substrate solution was admixed with acetate buffer (pH 6.0) and CaCl2 to give final concentrations of 20 mM and 1 mM, respectively. […] Substrate concentration was set to 2% (w/v) and followed by the enzyme reaction at 40° C. and pH 6.0 for 24 hours. Action and the specificity of the enzyme on these saccharides were confirmed by analyzing the reaction mixture before and after the reaction by TLC described in Experiment 1.

[2] = tested on: CMM-forming enzyme; test: Formation of CMM from various substrates; conditions: substrate 1.0% (w/v), one unit/g-substrate enzyme, 40° C., pH 6.0, 48 hours, HPLC
Method: Formation of CMM by the action of CMM-forming enzyme of the present invention was investigated using various saccharides as substrates. Maltotriose, maltotetraose, maltopentaose, maltohexaose, amylose, soluble starch, “[…] #100”, a partial starch hydrolyzate commercialized by Matsutani Chemical Industries Co., Ltd., Hyogo, Japan, or glycogen from corn, commercialized by Q.P. Corporation, Tokyo, Japan, was prepared into a solution. […] The reaction was stopped by heating the reaction mixture at 100° C. for 10 min. After treating the reaction mixture with α-glucosidase and glucoamylase by the same manner in Experiment 1, the amount of CMM was determined by HPLC and CMM content of the reaction mixture was measured.

[3] = tested on: CMM-forming enzyme; test: Effects of metal ions on the enzyme activity; conditions: for Effect on CMM-forming enzyme activity: 1 mM
[4] = CMM-forming enzyme activity in the presence of 1 mM metal salt, None = 100

Compound | Action [1] | Relative activity (%) [3, 4] [%] | also measured
maltotriose | + |  | CMM content (%) [2]: 0.6%; CMM content (%) ([2]; listed as maltotriose): about 0.6%
[Cl][Cu][Cl] [CuCl2] |  | 1 | Effect on CMM-forming enzyme activity [3]: remarkably inhibited
soluble starch | +++ |  | CMM content (%) [2]: 31.4%; CMM content (%) ([2]; listed as soluble starch): about 30%
OC[C@H]1O[C@@H]2O[C@H]3[C@H](O)[C@@H](O)[C@@H](O[C@H]4[C@H](O)[C@@H](O)[C@@H](O[C@H]5[C@H](O)[C@@H](O)[C@@H](O[C@H]6[C@H](O)[C@@H](O)[C@@H](O[C@H]7[C@H](O)[C@@H](O)[C@@H](O[C@H]1[C@H](O)[C@H]2O)O[C@@H]7CO)O[C@@H]6CO)O[C@@H]5CO)O[C@@H]4CO)O[C@@H]3CO [α-Cyclodextrin, α-cyclodextrin] | − |  | 
OC[C@H]1O[C@@H]2O[C@H]3[C@H](O)[C@@H](O)[C@@H](O[C@H]4[C@H](O)[C@@H](O)[C@@H](O[C@H]5[C@H](O)[C@@H](O)[C@@H](O[C@H]6[C@H](O)[C@@H](O)[C@@H](O[C@H]7[C@H](O)[C@@H](O)[C@@H](O[C@H]8[C@H](O)[C@@H](O)[C@@H](O[C@H]9[C@H](O)[C@@H](O)[C@@H](O[C@H]1[C@H](O)[C@H]2O)O[C@@H]9CO)O[C@@H]8CO)O[C@@H]7CO)O[C@@H]6CO)O[C@@H]5CO)O[C@@H]4CO)O[C@@H]3CO [γ-Cyclodextrin, γ-cyclodextrin] | − |  | 
OC[C@H]1O[C@H](O[C@H]2O[C@H](CO)[C@@H](O)[C@H](O)[C@H]2O)[C@H](O)[C@@H](O)[C@@H]1O [Trehalose, trehalose] | − |  | 
OC[C@H]1O[C@H](O[C@H]2[C@H](O)[C@@H](O)[C@@H](OC[C@H]3OC(O)[C@H](O)[C@@H](O)[C@@H]3O)O[C@@H]2CO)[C@H](O)[C@@H](O)[C@@H]1O (some centres unmarked) [Isopanose, isopanose] | − |  | 
OC[C@H]1O[C@H](O[C@H]2C(O)O[C@H](CO)[C@@H](O)[C@@H]2O)[C@H](O)[C@@H](O)[C@@H]1O (some centres unmarked) [Kojibiose, kojibiose] | − |  | 
OC[C@H]1O[C@@H](O[C@H]2O[C@H](CO)[C@@H](O)[C@H](O)[C@H]2O)[C@H](O)[C@@H](O)[C@@H]1O [Neotrehalose, neotrehalose] | − |  | 
OC[C@H]1O[C@H](O[C@H]2[C@H](O)[C@@H](CO)OC(O)[C@@H]2O)[C@H](O)[C@@H](O)[C@@H]1O (some centres unmarked) [Nigerose, nigerose] | − |  | 
OC[C@H]1O[C@@H]2O[C@H]3[C@H](O)[C@@H](O)[C@@H](O[C@H]4[C@H](O)[C@@H](O)[C@@H](O[C@H]5[C@H](O)[C@@H](O)[C@@H](O[C@H]6[C@H](O)[C@@H](O)[C@@H](O[C@H]7[C@H](O)[C@@H](O)[C@@H](O[C@H]8[C@H](O)[C@@H](O)[C@@H](O[C@H]1[C@H](O)[C@H]2O)O[C@@H]8CO)O[C@@H]7CO)O[C@@H]6CO)O[C@@H]5CO)O[C@@H]4CO)O[C@@H]3CO [β-Cyclodextrin, β-cyclodextrin] | − |  | 
[Cl-].[Cl-].[Zn+2] [ZnCl2] |  | 73 | 
[Cl][Pb][Cl] [PbCl2] |  | 36 | Effect on CMM-forming enzyme activity [3]: inhibited
OC[C@@H](O)[C@@H](O[C@H]1O[C@H](CO)[C@@H](O[C@H]2O[C@H](CO)[C@@H](O)[C@H](O)[C@H]2O)[C@H](O)[C@H]1O)[C@H](O)[C@@H](O)CO [Maltotriitol, maltotriitol] | − |  | 
maltoheptaose | +++ |  | CMM content (%) [2]: 36.6%
[Ca+2].[Cl-].[Cl-] [CaCl2] |  | 99 | 
[Cl][Al]([Cl])[Cl] [AlCl3] |  | 13 | Effect on CMM-forming enzyme activity [3]: inhibited
amylose | +++ |  | CMM content (%) [2]: 41.8%; CMM content (%) ([2]; listed as amylose): about 42%

Compound | Action [1] | Relative activity (%) [3, 4] [%] | also measured
dextran | − |  | 
[Cl][Ni][Cl] [NiCl2] |  | 90 | 
[Cl][Hg][Cl] [HgCl2] |  | 2 | Effect on CMM-forming enzyme activity [3]: remarkably inhibited
pullulan | − |  | 
OC[C@H]1O[C@H](O[C@H]2[C@H](O)[C@@H](O)[C@@H](O[C@H]3[C@H](O)[C@@H](O)[C@@H](O[C@H]4[C@H](O)[C@@H](O)C(O)O[C@@H]4CO)O[C@@H]3CO)O[C@@H]2CO)[C@H](O)[C@@H](O)[C@@H]1O (some centres unmarked) [Maltotetraose, maltotetraose] | +++ |  | CMM content (%) [2]: 27.3%
maltopentaose | +++ |  | CMM content (%) [2]: 24.4%
[Ba+2].[Cl-].[Cl-] [BaCl2] |  | 90 | 
[Cl-].[Cl-].[Mg+2] [MgCl2] |  | 98 | 
glycogen | ++ |  | CMM content (%) [2]: 29.5%; CMM content (%) ([2]; listed as glycogen): about 30%
[Cl][Fe][Cl] [FeCl2] |  | 95 | 
[Cl-].[Cl-].[Co+2] [CoCl2] |  |  | Relative activity (%) [3]: 95%
OC[C@H]1O[C@H](OC[C@H]2O[C@H](O[C@H]3[C@H](O)[C@@H](O)C(O)O[C@@H]3CO)[C@H](O)[C@@H](O)[C@@H]2O)[C@H](O)[C@@H](O)[C@@H]1O (some centres unmarked) [Panose, panose] | − |  | 
OC[C@H]1O[C@H](OC[C@H]2O[C@H](OC[C@H]3OC(O)[C@H](O)[C@@H](O)[C@@H]3O)[C@H](O)[C@@H](O)[C@@H]2O)[C@H](O)[C@@H](O)[C@@H]1O (some centres unmarked) [Isomaltotriose, isomaltotriose] | − |  | 
[Cl][Mn][Cl] [MnCl2] |  | 97 | 
[Cl][Fe]([Cl])[Cl] [FeCl3] |  | 32 | Effect on CMM-forming enzyme activity [3]: inhibited
maltohexaose | +++ |  | CMM content (%) [2]: 41.6%
OC[C@H]1O[C@H](OC[C@H]2OC(O)[C@H](O)[C@@H](O)[C@@H]2O)[C@H](O)[C@@H](O)[C@@H]1O (some centres unmarked) [Isomaltose, isomaltose] | − |  | 
[Cl-].[Cl-].[Sr+2] [SrCl2] |  | 90 | 
